Assay results taken from the supplement of paper PMC10307832.

Columns and labels:
Assay in all cases: relative viability (nuclei count vs DMSO), 5 days (fraction); higher = more cells survive
Selisistat + Decitabine = compound: C1CC(C2=C(C1)C3=C(N2)C=CC(=C3)Cl)C(=O)N [Selisistat] + Nc1ncn([C@H]2C[C@H](O)[C@@H](CO)O2)c(=O)n1 [Decitabine] (partner 2 µM)
Method in brief: (§1)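 Medians of duplicate plates are given as relative viability. That measure is the nuclei count in treated wells divided by the count in vehicle wells. Counts were taken on 4× images of lung cancer cell lines in 1536-well plates, 5 days after pin-tool dosing the day after seeding with one drug alone or a fixed anchor-drug dose plus five library-drug doses (not always all listed) in √10 steps.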

Selisistat + Trametinib = compound: C1CC(C2=C(C1)C3=C(N2)C=CC(=C3)Cl)C(=O)N [Selisistat] + CC(=O)Nc1cccc(-n2c(=O)n(C3CC3)c(=O)c3c(Nc4ccc(I)cc4F)n(C)c(=O)c(C)c32)c1 [Trametinib] (partner 0.02 µM)
Method in brief: as §1

Selisistat + Bortezomib = compound: C1CC(C2=C(C1)C3=C(N2)C=CC(=C3)Cl)C(=O)N [Selisistat] + CC(C)C[C@H](NC(=O)[C@H](Cc1ccccc1)NC(=O)c1cnccn1)B(O)O [Bortezomib] (partner 0.002 µM)
Method in brief: as §1

Serdemetan + Crizotinib = compound: c1ccc2c(CCNc3ccc(Nc4ccncc4)cc3)c[nH]c2c1 [Serdemetan] + C[C@@H](Oc1cc(-c2cnn(C3CCNCC3)c2)cnc1N)c1c(Cl)ccc(F)c1Cl [Crizotinib] (partner 1 µM)
Method in brief: as §1

Row | Cell Line | relative viability (Selisistat + Decitabine; first compound 0.4 µM) | relative viability (Selisistat + Decitabine; first compound 1.265 µM) | relative viability (Selisistat + Decitabine; first compound 4 µM) | relative viability (Selisistat + Decitabine; first compound 12.65 µM) | relative viability (Selisistat + Decitabine; first compound 40 µM) | relative viability (Selisistat + Trametinib; first compound 0.4 µM) | relative viability (Selisistat + Trametinib; first compound 1.265 µM) | relative viability (Selisistat + Trametinib; first compound 4 µM) | relative viability (Selisistat + Trametinib; first compound 12.65 µM) | relative viability (Selisistat + Trametinib; first compound 40 µM) | relative viability (Selisistat + Bortezomib; first compound 0.4 µM) | relative viability (Selisistat + Bortezomib; first compound 1.265 µM) | relative viability (Selisistat + Bortezomib; first compound 4 µM) | relative viability (Selisistat + Bortezomib; first compound 12.65 µM) | relative viability (Selisistat + Bortezomib; first compound 40 µM) | relative viability (Serdemetan + Crizotinib; first compound 0.04 µM) | relative viability (Serdemetan + Crizotinib; first compound 0.1265 µM) | relative viability (Serdemetan + Crizotinib; first compound 0.4 µM) | relative viability (Serdemetan + Crizotinib; first compound 1.265 µM) | relative viability (Serdemetan + Crizotinib; first compound 4 µM)
1 | RERF-LC-KJ | 0.806 | 0.601 | 0.593 | 0.61 | 0.614 | 0.812 | 0.792 | 0.816 | 0.771 | 0.736 | 1.18 | 1.02 | 0.974 | 1 | 1.05 | 0.763 | 0.818 | 0.718 | 0.705 | 0.753
2 | NCI-H650 | 0.407 | 0.293 | 0.286 | 0.324 | 0.33 | 0.978 | 1.01 | 0.967 | 0.909 | 1.01 | 0.832 |  | 0.868 | 0.636 | 1.08 | 0.549 | 0.735 | 0.636 | 0.723 | 0.566
3 | PC-3 [JPC-3] | 0.834 | 0.837 |  | 0.818 | 0.794 | 0.805 | 0.664 |  | 0.74 | 0.695 | 0.796 | 0.788 | 0.828 | 0.81 | 0.885 | 0.947 | 0.94 |  | 1.02 | 1.03
